How the values were obtained:
bkd−/− mutant zebrafish = test: rescue of 2:1 AV block phenotype in breakdance (bkd−/−) mutant zebrafish; assay type: in vivo; design: percent rescue at peak concentration relative to morpholino: dose or concentration left out as unconfirmed
Excerpt: The zebrafish breakdance mutant (Bkd−/−) fish is a unique model of action potential prolongation due to a mutation in the Zerg (zebrafish HERG) channel, that recapitulates human LQT2 syndrome and has been used in high throughput screens to identify molecules that may shorten the action potential duration. The phenotypic manifestation of the prolonged QT interval in the Bkd −/− fish is the presence of functional 2:1 AV block, and previous screens have taken advantage of this easily quantifiable phenotype to screen for ‘rescue’ from 2:1 AV block.
Bkd^−/− (Breakdance) adults were crossed, and the resultant embryos were reared in E3 buffer at 25° C. 24 hours post-fertilization (hpf) animals were dechorionated with pronase and plated per well in 96-well plates in a final volume of 200 μL. At 48 hpf, compounds were added to the appropriate concentration. Zebrafish were visually scored at 72 hpf for presence or absence of 2:1 AV block. For the dose response curve, the fish at 48 hpf were treated for 24 hours at the desired concentration (from 20 mM stock in DMSO) and scored for suppression of breakdance phenotype. Genetic inhibition of SGK1 was achieved either by injection of 500 μM of SGK1 morpholino or SGK1-dominant negative mRNA at the 1-2 cell stage and the fish were scored for rescue of 2:1 AV block at the 99 hpf stage.

SGK1 = biological target: T1, SGK1 (Homo sapiens, UniProt O00141, S422D); test: cell-based cardiomyocyte assay: SGK1-CA driven phosphorylation of GSK3β in NRVMs (immunoblot); design: species or system rat
T1 construct: expressed in transfected cells; host or cells: neonatal rat ventricular myocytes (NRVMs) infected with adenovirus Ad.SGK1-CA
T1 sequence (O00141 1-431 S422D): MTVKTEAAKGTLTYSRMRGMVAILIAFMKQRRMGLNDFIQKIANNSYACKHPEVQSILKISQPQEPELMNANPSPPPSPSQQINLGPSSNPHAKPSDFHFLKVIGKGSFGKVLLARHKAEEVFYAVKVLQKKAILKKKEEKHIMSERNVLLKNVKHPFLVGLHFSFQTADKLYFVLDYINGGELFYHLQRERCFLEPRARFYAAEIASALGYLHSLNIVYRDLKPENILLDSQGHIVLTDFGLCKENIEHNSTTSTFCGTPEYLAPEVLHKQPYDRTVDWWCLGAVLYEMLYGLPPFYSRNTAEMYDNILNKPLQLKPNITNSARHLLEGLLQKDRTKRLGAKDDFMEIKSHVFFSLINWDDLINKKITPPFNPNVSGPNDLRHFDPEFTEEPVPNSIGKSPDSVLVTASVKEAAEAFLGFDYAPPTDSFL
Protocol: (§1) These inhibitors were further characterized using a cell-based cardiomyocyte system (FIG. 3). 2×10^6 neonatal rat ventricular myocytes (NRVMs) were plated on 60 mm plates in DMEM containing 10% horse serum, 5% fetal bovine serum, 1% L-glutamine and 1% penstrep antibiotic. 24 h after plating media was changed to DMEM containing 1% L-glutamine, and 24 h following cells were infected with SGK-CA virus and treated with various concentrations of SGK inhibitors 5377051 (Compound 1A) and 6410136 (Chembridge compound catalogue #6410136). 12 h after infection and treatment, the media was changed and cells were treated again. 12 h following the second treatment NRVMs were harvested and lysed in 300 uL of cell lysis buffer (Cell Signaling) containing protease and phosphatase inhibitors and PMSF at 4 degrees C. for 1 h with shaking. Lysates were subjected to immunoblotting with an antibody against phospho […]-glycogen synthase kinase beta (p-GSK3β), a well-established SGK1 substrate. For gel electrophoresis, 50 ug of protein per well was loaded, transferred to nitrocellulose membrane, blocked, and incubated with GAPDH and P-GSK3β primary antibodies. As expected, Ad.

Akt = test: cardiomyocyte assay: Akt (myr-Akt) mediated phosphorylation of GSK3β in NRVMs (immunoblot); assay type: cell-based, rat; conditions: NRVMs infected with Ad.myr-Akt, FIG. 8B, FIG. 3
Protocol: as §1, with “As expected, Ad.” left out
Because SGK1 and Akt are structurally related but have very different roles in the heart, with Akt deemed to be cardioprotective against stress, the inhibitors were assessed to determine if they have an off-target effect on Akt in CMs. […]

## O=C1NC(=S)NC(=O)C1=Cc1ccccc1OCc1ccc(Cl)cc1 [Compound 1A]
bkd−/− mutant zebrafish; bkd−/− fish, compound at 45 μM
  percent rescue of 2:1 AV block phenotype: 58%
bkd−/− mutant zebrafish; bkd−/− fish, concentrations up to 50 μM
  toxicity: minimal and stable toxicity
bkd−/− mutant zebrafish; bkd−/− zebrafish, FIG. 2
  percent rescue at peak concentration relative to morpholino: comparable to rescue by morpholino
  toxicity in the dosages tested: no significant increase in toxicity
SGK1; NRVMs infected with SGK1-CA virus, FIG. 8A, FIG. 9
  effect on Ad.SGK1-CA induced increase in p-GSK3β: inhibited
SGK1; cellular assay, 10 micromolar compounds, FIG. 8C
  ability to inhibit SGK1 compared with EMD 638683: better or at least equivalent
Akt
  effect on Akt-mediated phosphorylation of GSK-3β (p-GSK3β): neither 5377051 nor 6410136 caused a significant inhibition

From US10456398B2, “Inhibition of SGK1 in the treatment of heart conditions” (Beth Israel Deaconess Medical Center, Inc., priority 2013, dated 2019)
